As usually defined, the remaining activity is what remains of the control signal, in per cent. What is called EC50 is the concentration needed to bring the measured effect to its halfway point. As usually defined, the melting point is the temperature of the solid-liquid transition.

This is an account of results in patent US20200061062A1, “INHIBITORS OF HUMAN PHOSPHATIDYLINOSITOL 3-KINASE DELTA” (ICOS Corporation, priority 2000, published 2020).

Like-named read-outs stand apart in the source and are kept apart here.

One data set has as its target T1, PI3Kα (Homo sapiens, UniProt P42336).
T1 construct: His tag (pFastbac HTb vector) (N); FLAG; made in house; host or cells: Sf21 insect cells (baculovirus)
In words: Biochemical assay of PI3K potency and selectivity using 20 μM ATP, Alpha. The settings on record: for Alpha/Delta Ratio: ratio of IC50 values, > = hypothetical ratio with 100 μM substituted for the missing IC50; for remaining activity at 100 µM: read-out: percent activity remaining at 100 μM, 20 μM ATP, 100 μM compound did not inhibit by at least 50%. The procedure, abridged: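 Radioactive phosphate transfer from γ-[32P]ATP onto PIP2/PS liposomes was measured in 20 mM HEPES, pH 7.4, at 20 μM ATP. The 3× substrate stock contained […] and 6 μM PIP2/PS.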

The target in another data set is T2, PI3Kγ (Homo sapiens, UniProt P48736).
T2 construct: His tag (pFastbac HTb vector) (N); FLAG (N); made in house; host or cells: Sf21 insect cells (baculovirus)
T2 sequence (P48736 whole entry): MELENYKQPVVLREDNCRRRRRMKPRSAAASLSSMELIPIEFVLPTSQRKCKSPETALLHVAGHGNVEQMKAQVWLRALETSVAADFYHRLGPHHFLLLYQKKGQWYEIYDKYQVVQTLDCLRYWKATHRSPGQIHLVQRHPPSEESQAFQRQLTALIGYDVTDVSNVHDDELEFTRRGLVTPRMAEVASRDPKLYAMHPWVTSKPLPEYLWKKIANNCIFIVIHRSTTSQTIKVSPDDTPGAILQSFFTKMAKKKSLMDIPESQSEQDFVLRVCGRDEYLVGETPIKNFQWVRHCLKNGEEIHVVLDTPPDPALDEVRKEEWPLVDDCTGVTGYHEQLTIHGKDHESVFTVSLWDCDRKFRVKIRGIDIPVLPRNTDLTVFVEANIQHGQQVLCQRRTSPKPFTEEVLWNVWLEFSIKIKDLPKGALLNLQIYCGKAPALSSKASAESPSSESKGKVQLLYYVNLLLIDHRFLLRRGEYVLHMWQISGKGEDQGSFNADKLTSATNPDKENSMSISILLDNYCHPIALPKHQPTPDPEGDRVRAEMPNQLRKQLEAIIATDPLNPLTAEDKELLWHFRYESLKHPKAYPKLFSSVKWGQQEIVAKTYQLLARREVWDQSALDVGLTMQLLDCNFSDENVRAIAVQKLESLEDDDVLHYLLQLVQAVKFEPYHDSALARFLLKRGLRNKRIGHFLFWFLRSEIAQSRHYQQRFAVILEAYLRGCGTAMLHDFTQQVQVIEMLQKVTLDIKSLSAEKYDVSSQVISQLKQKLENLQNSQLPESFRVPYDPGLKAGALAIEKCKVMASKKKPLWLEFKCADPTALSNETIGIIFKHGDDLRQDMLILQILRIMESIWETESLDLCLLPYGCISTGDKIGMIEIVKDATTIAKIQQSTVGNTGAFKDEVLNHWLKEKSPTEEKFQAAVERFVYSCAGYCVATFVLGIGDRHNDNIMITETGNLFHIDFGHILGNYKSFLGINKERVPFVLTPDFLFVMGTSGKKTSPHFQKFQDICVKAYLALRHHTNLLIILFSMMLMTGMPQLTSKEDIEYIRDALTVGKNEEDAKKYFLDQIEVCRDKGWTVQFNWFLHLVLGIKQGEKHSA
As to the kind of experiment: Biochemical assay of PI3K potency and selectivity using 20 μM ATP, Gamma. The following applies: for Gamma/Delta Ratio: ratio of IC50 values.

In data set [1] the test system is Murine splenocytes (Balb/c). As to the kind of experiment: B cell proliferation in response to cell surface IgM stimulation. The settings on record: Mus musculus, Splenocyte; for EC50: stimulated B cell proliferation, read-out: Mouse BCR Stim (EC50). It is filed as cell-based. The procedure, abridged:
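Balb/c splenocytes (2×10^5/well, 10% FBS/RPMI) preincubated 30-60 min with inhibitor, then stimulated with goat F(ab′)2 anti-mouse IgM μ-chain at 25 μg/mL final. Cultured 3 days at 37° C., [^3H]-thymidine pulsed for final 4 h; incorporation counted as CPM. Values are EC50 (μM).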

A further data set has as its system human B cells. In words: Antibody production by human B cells (IgG and IgM ELISA). The class given is cell-based. The following applies: B-cell, IL-2 and PANSORBIN stimulation. The protocol: Heparinized blood (200 mL) from healthy volunteers was mixed with an equal volume of D-PBS, layered on 10×10 mL FICOLL-PAQUE® (Pharmacia), and centrifuged at 1600 rpm for 30 min at room temperature. Peripheral blood mononuclear cells (PBMC) were collected from the FICOLL®/serum interface, overlayed on 10 mL fetal bovine serum (FBS) and centrifuged at 800 rpm for 10 min to remove platelets. After washing, cells were incubated with DYNAL® Antibody Mix (B cell kit) (Dynal Corp., Lake Success, N.Y.) for 20 min at 4-8° C. Following the removal of unbound antibody, PBL were mixed with anti-mouse IgG coated magnetic beads (Dynal) for 20 min at 4-8° C. with gentle shaking followed by elimination of labeled non-B cells on the magnetic bead separator. This procedure was repeated once more. The B cells were resuspended in RPMI-1640 with 10% FBS, and kept on ice until further use.
To study antibody production, B cells were aliquoted at 50-75×10^3 cells/well into 96-well plate with or without inhibitor, to which IL-2 (100 U/mL) and PANSORBIN® (Calbiochem) Staphylococcus aureus cells (1:90,000) were added. […] Samples from each condition (in triplicate) were removed, and analyzed for IgG and IgM, as measured by ELISA. […] Color development was stopped by H2SO4 solution, and plates were read on an ELISA plate reader.

Another data set deals with KU812. In words: Cancer cell proliferation, [3H]-thymidine incorporation, KU812. The class given is cell-based. The settings on record: Homo sapiens, 120 h; KU812 line; five days; read-out: EC50, inhibition of cell growth. The protocol:
The effect of compounds of the invention on cancer cell proliferation was evaluated by testing one of the compounds against a panel of Chronic Myeloid Leukemia (CML) cell lines, including KU812, RWLeu4, K562, and MEG-01.
The inhibitory activity of the compound (D-000, dissolved in DMSO) was determined as follows. The tested compound was added in a series of concentrations (0.001 μM to 20 μM) to 96-well microtiter plates with cells (1000 to 5000 cells/well). Plates were incubated for five days at 37° C. during which the control cultures without test compound were able to undergo at least two cell-division cycles. Cell growth was measured by incorporation of [^3H]-thymidine for eighteen hours added at days three, four, and five. Cells were transferred to a filter, washed and the radioactivity counted using a Matrix 96 beta counter (Packard). The percentage of cell growth was measured as follows: […]
For orientation: Dividing cells build labelled thymidine or BrdU into new DNA.

T1 sequence (P42336 whole entry): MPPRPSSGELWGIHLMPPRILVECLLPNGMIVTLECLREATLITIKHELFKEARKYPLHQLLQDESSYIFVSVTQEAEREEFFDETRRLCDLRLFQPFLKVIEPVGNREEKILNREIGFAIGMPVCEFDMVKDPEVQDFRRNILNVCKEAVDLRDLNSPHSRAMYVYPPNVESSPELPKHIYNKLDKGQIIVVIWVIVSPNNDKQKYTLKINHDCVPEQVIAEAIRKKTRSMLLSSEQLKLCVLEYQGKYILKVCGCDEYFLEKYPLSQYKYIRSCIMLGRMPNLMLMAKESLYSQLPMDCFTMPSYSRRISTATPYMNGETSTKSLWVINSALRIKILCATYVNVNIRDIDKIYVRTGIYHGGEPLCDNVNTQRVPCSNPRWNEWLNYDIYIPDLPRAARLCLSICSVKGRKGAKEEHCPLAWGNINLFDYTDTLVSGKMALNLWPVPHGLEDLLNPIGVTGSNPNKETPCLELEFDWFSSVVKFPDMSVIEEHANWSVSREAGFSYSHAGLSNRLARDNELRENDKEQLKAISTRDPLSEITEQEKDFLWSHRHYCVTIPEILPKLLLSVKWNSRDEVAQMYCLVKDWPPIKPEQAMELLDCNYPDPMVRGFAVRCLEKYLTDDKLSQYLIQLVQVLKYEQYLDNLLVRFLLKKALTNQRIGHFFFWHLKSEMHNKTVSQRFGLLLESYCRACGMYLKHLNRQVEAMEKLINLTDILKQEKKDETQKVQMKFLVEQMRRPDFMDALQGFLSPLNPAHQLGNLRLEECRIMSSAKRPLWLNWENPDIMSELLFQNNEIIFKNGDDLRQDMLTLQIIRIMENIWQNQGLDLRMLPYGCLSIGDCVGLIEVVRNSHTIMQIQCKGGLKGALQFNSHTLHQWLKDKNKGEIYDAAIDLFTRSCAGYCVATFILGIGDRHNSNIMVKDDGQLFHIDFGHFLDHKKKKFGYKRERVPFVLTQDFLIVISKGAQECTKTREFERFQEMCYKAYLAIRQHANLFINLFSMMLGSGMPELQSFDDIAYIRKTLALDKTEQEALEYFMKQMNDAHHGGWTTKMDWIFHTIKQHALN
T1 sequence (P27986 whole entry partner): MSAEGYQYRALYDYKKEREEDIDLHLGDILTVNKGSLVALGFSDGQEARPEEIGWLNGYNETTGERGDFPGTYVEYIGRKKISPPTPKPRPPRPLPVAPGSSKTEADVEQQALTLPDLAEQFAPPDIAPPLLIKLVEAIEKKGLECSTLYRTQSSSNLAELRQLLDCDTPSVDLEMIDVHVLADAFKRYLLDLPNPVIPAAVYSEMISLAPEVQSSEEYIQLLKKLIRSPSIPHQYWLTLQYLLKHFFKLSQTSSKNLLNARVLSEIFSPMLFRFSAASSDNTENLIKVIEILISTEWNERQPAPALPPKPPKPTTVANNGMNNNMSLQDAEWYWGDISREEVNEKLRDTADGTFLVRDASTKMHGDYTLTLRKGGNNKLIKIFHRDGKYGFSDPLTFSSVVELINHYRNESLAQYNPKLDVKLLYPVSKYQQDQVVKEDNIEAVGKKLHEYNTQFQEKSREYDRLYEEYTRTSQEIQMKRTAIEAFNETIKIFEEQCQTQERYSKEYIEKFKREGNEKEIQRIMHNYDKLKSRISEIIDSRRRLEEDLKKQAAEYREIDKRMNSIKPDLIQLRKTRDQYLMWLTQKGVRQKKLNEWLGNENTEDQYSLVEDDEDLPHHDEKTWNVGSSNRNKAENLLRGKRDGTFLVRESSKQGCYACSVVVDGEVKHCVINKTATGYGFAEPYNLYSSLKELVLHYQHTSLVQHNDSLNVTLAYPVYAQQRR

With `O=c1c2c(F)cccc2nc(CSc2ncnc3[nH]cnc23)n1-c1ccccc1Cl` [Compound D-015, 3-(2-Chlorophenyl)-5-fluoro-2-(9H-purin-6-ylsulfanylmethyl)-3H-quinazolin-4-one], the melting point fell in the range of 222.7 to 223.8 °C. For the same molecule, on PI3Kα (20 μM ATP), the “Alpha/Delta Ratio” value is over 480. Further, on PI3Kα, the remaining activity at 100 µM is 65%. For the same molecule, at PI3Kγ, the IC50 was determined as 3.6 µM and the “Gamma/Delta Ratio” value amounted to 17. The EC50 in data set [1] is 1.2 ± 0.2 µM.

For `O=c1c2ccccc2nc(CSc2ncnc3[nH]ncc23)n1-c1ccccc1Cl` [Compound D-999, 3-(2-Chlorophenyl)-2-(1H-pyrazolo[3,4-d]pyrimidin-4-ylsulfanylmethyl)-3H-quinazolin-4-one, reference compound], the “Alpha/Delta Ratio” value at PI3Kα (20 μM ATP) was determined as 2.2. For the same molecule, the IC50 at PI3Kα (20 μM ATP, read-out: Alpha IC50) turned out to be 105 µM; against PI3Kγ it was 60 µM. Besides, on PI3Kγ, the “Gamma/Delta Ratio” value was determined as 1.3. Besides, the EC50 in data set [1] came out at 3.1 ± 0.7 µM.

`O=c1c2ccccc2nc(CSc2ncnc3[nH]cnc23)n1-c1ccccc1Cl` [Compound D-000, 3-(2-chlorophenyl)-2-(9H-purin-6-ylsulfanylmethyl)-3H-quinazolin-4-one]: the “Alpha/Delta Ratio” value at PI3Kα (20 μM ATP) is listed as over 302. Further, the IC50 was over 100 µM at PI3Kα (Example 2 assay conditions, limit of 100 μM compound, read-out: IC50, α isoform of PI3K (FIG. 1)); 7.7 µM against PI3Kγ; about 7 µM in the data set with human B cells (FIG. 7, read-out: Half-maximal inhibition of IgG production); about 1 µM in the data set with human B cells (FIG. 7, read-out: Half-maximal inhibition of IgM production); about 1 µM in data set [1] (anti-IgM 25 μg/mL, 3 days, [3H]-thymidine, FIG. 8, read-out: Concentration reducing anti-IgM-stimulated B cell proliferation to its half-maximal value). Moreover, the remaining activity at 100 µM at PI3Kα amounted to 86%. The “Gamma/Delta Ratio” value at PI3Kγ turned out to be 23. Moreover, the EC50 in data set [1] was 0.9 ± 0.4 µM; in the data set with KU812, about 2 µM.

As for `O=c1c2c(Cl)cccc2nc(CSc2ncnc3[nH]cnc23)n1-c1ccccc1Cl` [Compound D-025, 5-Chloro-3-(2-chlorophenyl)-2-(9H-purin-6-ylsulfanylmethyl)-3H-quinazolin-4-one], the melting point was 233.7 to 234.4 °C (dec.). Further, the “Alpha/Delta Ratio” value at PI3Kα (20 μM ATP) is over 909. The remaining activity at 100 µM at PI3Kα is 73%. Besides, on PI3Kγ, the IC50 is 1.5 µM and the “Gamma/Delta Ratio” value stood at 14. The EC50 in data set [1] came to 0.3 ± 0.1 µM.
